# From article PMC9896555, “Cyclic Acetals as Novel Long-Lasting Mosquito Repellents” (Journal of Agricultural and Food Chemistry, 2023)
# Several values for one entry are separate records, joined by “and”; a condition that tells them apart may be missing. Identical values can stand only once. Entries after “also recorded” stand apart in the source; their conditions may differ. Like-named read-outs stand apart in the source and are kept apart here.
# Experiments:
# Aedes albopictus [1] = assay: Protection time at 0.17 mg/cm2, human-bait technique; assay type: in vivo; conditions: for pest or weed control at 0.17 mg/cm2, 0.17 mg/cm2: Aedes albopictus, topical, read-out: Protection time PE%
# Procedure, shortened: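 Human-bait test with 100 μL of 5% ethanol solution applied to skin (0.17 mg/cm2); ethanol-treated hand as negative control. Repellency checked hourly up to 8 h on up to 8 volunteers; protection time taken as mean time with >95% protection, complete protection time estimated by Kaplan–Meier.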
# Caco-2 monolayer = assay: Transwell permeation test; assay type: in vitro ADME; conditions: 82 μg/mL apical, 3 h
# Method: To evaluate the possibility of absorption after topical application, we tested the permeation through a Caco-2 monolayer for those compounds best performing in terms of protection time and cytotoxicity. The colorectal adenocarcinoma cell line Caco-2 was purchased from ATCC and cultured in DMEM with 20% FBS, L-glutamine (2 mM), and 1% penicillin–streptomycin 100 U/mL (Thermo Fisher Scientific, Rodano, Milan, Italy) in 5% CO2 at 37 °C.
# For the permeation studies, Caco-2 cells, a model of epithelial cells, were seeded into 12-well PET Transwell plates (1.13 cm^2 growth surface area and pore size 0.4 μm, Greiner Bio-One, Milan, Italy) at a density of 2 × 10^5 cells/cm^2 and grown for 21 days to form a confluent monolayer. The integrity of the cellular barrier was then assessed using Lucifer Yellow (LY) permeability test, before the experiments.[33]
# After washing, the monolayers were preincubated for 20 min at 37 °C with 0.5 and 1.5 mL of the incubation medium, HBSS/HEPES 25 mM in the apical and basolateral sides, respectively. […] At the end of the experiment, the layer integrity was re-evaluated. […]
# One hundred microliters of the collected media was extracted in 100 μL of heptane by vortexing the vial for 2 min; 70 μL of this solution was recovered; and 1 μL was injected in a 7820 GC system-5977B MSD system and analyzed under the same conditions reported in paragraph 2.2. […]
# RAW 264.7 = assay: Immunogenicity on murine macrophages (nitric oxide release); assay type: cell-based; conditions: RAW264.7, 82 μg/mL, 6 h
# Method: Cells were cultured in DMEM, with 10% FBS, 1% L-glutamine (2 mM), and 1% penicillin–streptomycin 100 U/mL at 37 °C in an atmosphere containing 5% CO2. RAW264.7 were seeded (1 × 10^5 cells/well) and exposed to five derivatives or Icaridin, at 82 μg/mL or to LPS (1 μg/mL) as a positive control, for 3 and 6 h. After that, nitric oxide release was determined in the culture media as previously described.[32] Experiments were performed in triplicate.
# HaCaT cells = assay: Cytotoxicity on human keratinocytes (MTS); assay type: cell-based; conditions: 82 μg/mL, 24 h
# Method: HaCaT cells were cultured in 5% CO2 at 37 °C in Dulbecco’s modified Eagle’s medium (DMEM), supplemented with 10% fetal bovine serum (FBS), 1% L-glutamine ([…]), and 1% penicillin–streptomycin (Thermo Fisher Scientific, Rodano, Milan, Italy). […] Experiments were performed in triplicate.
# Aedes albopictus [2] = assay: Effective dose / protection efficacy, human-bait technique; assay type: in vivo
# Method: The repellence of DEET, Icaridin (both supplied by Istituto Biochimico VEBI s.r.l.), acetals, and the synthesized hydroxyacetals was evaluated againstAedes albopictususing the human-bait technique (to simulate the condition of human skin on which repellents will be applied).[22]A. albopictuswas reared and tested at 26 ± 2 °C, ≥60 ± 10% relative humidity (RH), and at 14:10 h light/dark photoperiod, within Plexiglas cylindrical laboratory cages (35 cm diameter, 60 cm length) with one end closed by a net. During the tests, cages contained ≈150 nulliparous, 4–7 day-old, nonblood-fed females. For each compound to be tested, up to six volunteers participated in the trial.
# The study was approved by the Regional Ethics Committee for Clinical Trials of Tuscany Region with the registered number 20383. Volunteers agreed to take part in the experiments following informed consent; only volunteers non-allergic to mosquito bites participated in the trials. On the day of the bioassay, they had no contact with lotions, perfumes, oils, or perfumed soaps. They wore latex surgical gloves, in which a dorsal square area of 30 cm^2 was cut open. Mosquito-exposed skin was treated with 50 μL of ethanol, as the negative hand control. The other hand was treated with 50 μL of the tested compounds in ethanol solution (dosages corresponding to 0.081, 0.17, 0.33, 0.5, 0.83, 1.7, 8.3, 16.7, and 83.3 μg/cm^2). Both hands were presented in the same test cage. The number of probing mosquitoes in a 3 min exposure period was recorded. During each test, the control and the treated hand were presented interchanged to verify the mosquitoes’ readiness to bite. Trials were considered valid only if at least 30 mosquitoes performed probing behavior on the control hand before each repellent dosage was tested. The protection efficacy (PE %) obtained from all replicates was calculated, according to the WHO guidelines[31] using this formula [drawing 1]
# To evaluate the protection efficacy, volunteers applied increasing doses of the compounds to the skin on the back of their hands (30 cm^2, while the rest was covered with a rubber glove) and counted the number of mosquitoes attempting to bite; the solvent only was used on the control hand. The protection (percentage of repelled mosquitoes) was calculated as reported in the Material and Methods section.
compound,measurement,setting,value
OCC1COC2(CCCCCCC2)O1 (stereo not shown) [12a],"pest or weed control at 0.17 mg/cm2, 0.17 mg/cm2","Aedes albopictus [1]; 0.17mg/cm2, 1 h",100%
same,"pest or weed control at 0.17 mg/cm2, 0.17 mg/cm2","Aedes albopictus [1]; 0.17mg/cm2, 2 h",100%
same,"pest or weed control at 0.17 mg/cm2, 0.17 mg/cm2","Aedes albopictus [1]; 0.17mg/cm2, 3 h",100%
same,"pest or weed control at 0.17 mg/cm2, 0.17 mg/cm2","Aedes albopictus [1]; 0.17mg/cm2, 4 h",100%
same,"pest or weed control at 0.17 mg/cm2, 0.17 mg/cm2","Aedes albopictus [1]; 0.17mg/cm2, 5 h",100%
same,"pest or weed control at 0.17 mg/cm2, 0.17 mg/cm2","Aedes albopictus [1]; 0.17mg/cm2, 6 h",97.1%
same,"pest or weed control at 0.17 mg/cm2, 0.17 mg/cm2","Aedes albopictus [1]; 0.17mg/cm2, 7 h",96.9%
same,"pest or weed control at 0.17 mg/cm2, 0.17 mg/cm2","Aedes albopictus [1]; 0.17mg/cm2, 8 h",100%
same,Average PT >95% (% coefficient of variation),Aedes albopictus [1]; at the dose of 0.17mg/cm2,480 (0) min
same,"Estimated 100% PT (complete protection time, mean±SE)","Aedes albopictus [1]; at the dose of 0.17mg/cm2, Kaplan–Meier estimate",380 ± 20 min
same,Protection time (95% protection),"Aedes albopictus [1]; dose of 0.17 mg/cm^2, tests ended after 8 h",8 h
same,permeability value lower compared to Icaridin,Caco-2 monolayer,44%
same,"immunogenicity (nitric oxide release / nitrite production), in words",RAW 264.7,did not exhibit immunogenicity; also recorded: indistinguishable from the negative control
same,survival of keratocytes,HaCaT cells,> 88% and 100%
same,"pest or weed control at 0.081 µg/cm2, 0.081 µg/cm2","Aedes albopictus [2]; Aedes albopictus, topical, 0.081 µg/cm2, read-out: Protection efficacy PE%",46.3%
same,"pest or weed control at 0.17 µg/cm2, 0.17 µg/cm2","Aedes albopictus [2]; Aedes albopictus, topical, 0.17 µg/cm2, read-out: Protection efficacy PE%",58.9%
same,"pest or weed control at 0.33 µg/cm2, 0.33 µg/cm2","Aedes albopictus [2]; Aedes albopictus, topical, 0.33 µg/cm2, read-out: Protection efficacy PE%",62.2%
same,"pest or weed control at 0.5 µg/cm2, 0.5 µg/cm2","Aedes albopictus [2]; Aedes albopictus, topical, 0.5 µg/cm2, read-out: Protection efficacy PE%",87%
same,"pest or weed control at 0.83 µg/cm2, 0.83 µg/cm2","Aedes albopictus [2]; Aedes albopictus, topical, 0.83 µg/cm2, read-out: Protection efficacy PE%",90.7%
same,"pest or weed control at 1.7 µg/cm2, 1.7 µg/cm2","Aedes albopictus [2]; Aedes albopictus, topical, 1.7 µg/cm2, read-out: Protection efficacy PE%",100%
same,"pest or weed control at 8.3 µg/cm2, 8.3 µg/cm2","Aedes albopictus [2]; Aedes albopictus, topical, 8.3 µg/cm2, read-out: Protection efficacy PE%",100%
same,"pest or weed control at 16.7 µg/cm2, 16.7 µg/cm2","Aedes albopictus [2]; Aedes albopictus, topical, 16.7 µg/cm2, read-out: Protection efficacy PE%",100%
same,"pest or weed control at 83.3 µg/cm2, 83.3 µg/cm2","Aedes albopictus [2]; Aedes albopictus, topical, 83.3 µg/cm2, read-out: Protection efficacy PE%",100%
same,100% PE,Aedes albopictus [2]; Table S1,1.7 µg/cm2
same,Protection efficacy (dose to obtain complete protection (100%) from bite attempts),"Aedes albopictus [2]; applied on skin of volunteers, 3 min exposure",1.7 μg/cm^2
